From PMC4022671, “Characterization of Mannitol-2-Dehydrogenase in Saccharina japonica: Evidence for a New Polyol-Specific Long-Chain Dehydrogenases/Reductase” (PLoS ONE, 2014)

Molecular target: T1, SjM2DH (mannitol-2-dehydrogenase) (Saccharina japonica, UniProt R9UHL6)
T1 construct: assayed in cell-free extract
Assay: NADH depletion at OD340, crude E. coli extract with recombinant enzyme
Assay type: biochemical
Settings: NADH 1 mM, fructose 100 mM, 100 mM Tris-HCl pH 7.5, 35 °C

T1 sequence (R9UHL6 entry or part of it): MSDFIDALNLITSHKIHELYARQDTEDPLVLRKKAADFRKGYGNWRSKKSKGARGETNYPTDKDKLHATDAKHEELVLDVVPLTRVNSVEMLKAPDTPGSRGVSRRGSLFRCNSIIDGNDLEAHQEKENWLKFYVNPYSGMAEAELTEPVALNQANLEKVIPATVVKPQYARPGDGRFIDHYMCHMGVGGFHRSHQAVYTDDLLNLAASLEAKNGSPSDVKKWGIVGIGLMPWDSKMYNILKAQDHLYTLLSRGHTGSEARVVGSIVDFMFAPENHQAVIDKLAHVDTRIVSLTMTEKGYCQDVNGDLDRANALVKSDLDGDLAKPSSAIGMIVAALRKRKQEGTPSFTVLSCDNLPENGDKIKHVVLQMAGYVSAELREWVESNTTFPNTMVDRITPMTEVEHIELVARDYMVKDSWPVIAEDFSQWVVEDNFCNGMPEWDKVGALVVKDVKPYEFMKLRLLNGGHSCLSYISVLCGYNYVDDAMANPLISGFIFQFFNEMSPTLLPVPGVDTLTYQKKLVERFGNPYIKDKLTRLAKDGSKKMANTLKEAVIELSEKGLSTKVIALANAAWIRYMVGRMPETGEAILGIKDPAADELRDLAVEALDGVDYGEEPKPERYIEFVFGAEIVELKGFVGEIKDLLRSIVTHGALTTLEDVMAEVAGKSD

Row | Compound | NADH depletion at OD340, crude E. coli extract with recombinant enzyme
1 | OCC1(O)OC[C@@H](O)[C@@H](O)[C@@H]1O (stereo partly drawn) [D-fructose] | When D-fructose was applied as the substrate, a depletion of NADH was detected
2 | NC(=O)C1=CN([C@@H]2O[C@H](COP(=O)(O)OP(=O)(O)OC[C@H]3O[C@@H](n4cnc5c(N)ncnc54)[C@H](O)[C@@H]3O)[C@@H](O)[C@H]2O)C=CC1 [NADH] | reduction of fructose by recombinant SjM2DH exclusively uses NADH as cofactor
